Assay [1] is described as follows: Hemodynamic effects in anesthetized open-chest dogs. It counts as in vivo, Mongrel dogs. The following applies: Canis lupus familiaris; for change in vivo at 0.3 mg/kg: 0.3 mg/kg iv; for change in vivo at 0.1 mg/kg: 0.1 mg/kg iv; for change in vivo at 1 mg/kg: 1.0 mg/kg iv. The procedure: Mongrel dogs of either sex were anesthetized with pentobarbital sodium (30 mg/kg iv). The animals were artificially ventilated with room air. The chest was opened at the left 4th intercostal space. Mean arterial blood pressure (MBP), heart rate (HR), left ventricular pressure (LVP), max. dLVP/dt, mean pulmonary arterial blood pressure (MPAP), cardiac output (CO) and coronary blood flow (Cor. BF) were measured. The test compounds were injected into the femoral vein. Hemodynamic effects of these compounds were compared with that of well known Ca^2+ -antagonists. Table 1 (column 1) indicates the percent changes of MBP and Cor. BF from control values induced by intravenous injection of test compounds.

The next assay deals with coronary artery. In words: Coronary vasodilating effects, intracoronary injection in anesthetized dogs. The following applies: for Duration of action of coronary vasodilating effect: intracoronary injection; for ED100 pap (dose for 100% increase of Cor. BF): intracoronary, maximum response to papaverine 300 μg ia = 100%. It counts as in vivo, Mongrel dogs. The procedure:
Mongrel dogs of either sex were anesthetized and ventilated as previously described. A thoracotomy was performed at the 4th intercostal space. Following an intravenous injection of […] (1000 units/kg), blood from the distal end of the cannulated carotid artery was pumped into circumflex branch of the left coronary artery using a servocontrolled peristaltic pump which maintained a constant perfusion pressure of 120 mmHg by means of a pump controller. An electromagnetic flow probe was inserted in the circuit to record blood flow through the cannulated coronary artery. The test compounds were administered directly into the rubber tubing connected close to the coronary artery cannula. Coronary vasodilating potency of the test compounds was by calculating the dose required to produce 100% increase of Cor. BF (ED100 pap), when the maximum responses to papaverine at a dose of 300 μg ia was expressed at 100% response.

Assay [2] deals with T1, Beta-adrenoceptor (Rattus norvegicus, UniProt P18090).
T1 construct: from tissue; host or cells: heart in situ of anesthetized male Wistar rats (in vivo, i.v. dosing)
In words: Intrinsic sympathomimetic activity (ISA), increase in heart rate. Format: in vivo, male Wistar rats. Conditions: increase in HR, reserpinized rats, iv. Here is the method:
(§1) The rats were pretreated with reserpine (8 mg/kg ip), 18 hr before experiments. […] The heart rate was measured with a cardiotachometer triggered by the QRS of the ECG (lead II) and recorded on a polygraph. After the control response to isoproterenol at a dose of 0.1 μg/kg iv was obtained, the test compound was injected iv in increasing doses at 20 min intervals.
In this series of experiments, intrinsic sympathomimetic activity (ISA) was also evaluated. The results are shown in Table 1 (column 4), wherein "-" represents that an increase in HR was scarcely observed, "+" represents an increase in HR of 10 to 19 beats/min, "++" represents an increase in HR of 20 to 29 beats/min, and "+++" represents an increase in HR of above 30 beats/min.

Assay [3] concerns the target T1, Beta-adrenoceptor. In words: Beta-adrenoceptor blocking effects: blockade of positive chronotropic response to isoproterenol. Conditions: 50% blockade of chronotropic response to isoproterenol 0.1 μg/kg iv, reserpinized, vagotomized rats, cumulative dose, read-out: Beta Blocking ED50. It counts as in vivo, male Wistar rats. The procedure: as §1
Setting [4] is: read-out: Cor. BF, percent change from control.
[5] abbreviates: read-out: MBP, percent change from control.

Like-named read-outs stand apart in the source and are kept apart here.

T1 sequence (P18090 whole entry): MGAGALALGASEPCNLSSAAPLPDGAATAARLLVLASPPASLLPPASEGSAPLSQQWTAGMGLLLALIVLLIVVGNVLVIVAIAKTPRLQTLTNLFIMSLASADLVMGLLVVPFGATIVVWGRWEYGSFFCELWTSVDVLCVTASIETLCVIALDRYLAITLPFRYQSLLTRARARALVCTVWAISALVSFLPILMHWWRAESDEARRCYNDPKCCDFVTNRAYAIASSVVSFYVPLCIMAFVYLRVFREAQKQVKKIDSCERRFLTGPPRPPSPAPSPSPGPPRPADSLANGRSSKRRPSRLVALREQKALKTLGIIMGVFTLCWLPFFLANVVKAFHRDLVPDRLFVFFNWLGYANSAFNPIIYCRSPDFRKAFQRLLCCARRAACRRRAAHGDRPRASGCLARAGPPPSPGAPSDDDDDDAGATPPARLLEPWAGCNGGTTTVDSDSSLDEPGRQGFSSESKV

On to `COc1ccc([C@@H]2Sc3ccccc3N(CCN(C)C)C(=O)[C@@H]2OC(C)=O)cc1` [Diltiazem, reference compound], for which the change in vivo at 0.3 mg/kg in assay [1] (setting [4]) was 90%. For the same molecule, in assay [1] (setting [5]), the change in vivo at 0.3 mg/kg is -30%. Further, in the assay on coronary artery, the “Duration of action of coronary vasodilating effect” value (shortened to “Duration”) was found to be 20 min and the “ED100 pap (dose for 100% increase of Cor. BF)” value stood at 51 μg ia.
Take `COC(=O)C1=C(C)NC(C)=C(C(=O)OC)C1c1cc([N+](=O)[O-])ccc1OCCNCC(O)COc1ccccc1` (stereo not drawn) [Example 1, dimethyl 4-[2-[2-(2-hydroxy-3-phenoxypropylamino)ethoxy]-5-nitrophenyl]-2,6-dimethyl-1,4-dihydropyridine-3,5-dicarboxylate]: the ISA entry at Beta-adrenoceptor [2] is reported as “+++ (an increase in HR of above 30 beats/min)”. At Beta-adrenoceptor [3], the ED50 (in general, the dose at which the effect has come halfway, by size or by number of responders) amounted to 0.13 mg/kg. Also, in assay [1] (setting [4]), the change in vivo at 0.1 mg/kg was 21% and the change in vivo at 0.3 mg/kg was 69%. In addition, in assay [1] (setting [5]), the change in vivo at 0.1 mg/kg was -7% and the change in vivo at 0.3 mg/kg was -17%. Besides, in the assay on coronary artery, the “Duration” value was found to be 15 min and the “ED100 pap (dose for 100% increase of Cor. BF)” value is listed as 75 μg ia.
Turning to `COC(=O)C1=C(C)NC(C)=C(C(=O)OC)C1c1cc([N+](=O)[O-])ccc1OCCCNCC(O)COc1ccccc1` (stereo not drawn) [Example 8, dimethyl 4-[2-[3-(2-hydroxy-3-phenoxypropylamino)propoxy]-5-nitrophenyl]-2,6-dimethyl-1,4-dihydropyridine-3,5-dicarboxylate], the ISA entry on Beta-adrenoceptor [2] was “+ (an increase in HR of 10 to 19 beats/min)”. In addition, at Beta-adrenoceptor [3], the 50% effective dose (ED50) was found to be 0.31 mg/kg. In addition, the change in vivo at 1 mg/kg in assay [1] (setting [4]) was 10%; in assay [1] (setting [5]), -29%. Further, the “Duration” value with coronary artery was 60 min. Also, the “ED100 pap (dose for 100% increase of Cor. BF)” value in the assay on coronary artery came to 645 μg ia.
On to `CCOC(=O)C1=C(C)NC(C)=C(C(=O)OC)C1c1cc([N+](=O)[O-])ccc1OCCCCNCC(O)COc1ccccc1` (stereo not drawn) [Example 10, ethyl methyl 4-[2-[4-(2-hydroxy-3-phenoxypropylamino)butoxy]-5-nitrophenyl]-2,6-dimethyl-1,4-dihydropyridine-3,5-dicarboxylate], for which the ISA result at Beta-adrenoceptor [2] is “-”. The ED50 on Beta-adrenoceptor [3] was found to be 0.73 mg/kg. Further, in assay [1] (setting [4]), the change in vivo at 0.3 mg/kg was 26%. Also, the change in vivo at 0.3 mg/kg in assay [1] (setting [5]) was -12%. For the same molecule, in the assay on coronary artery, the “Duration” value was above 60 min and the “ED100 pap (dose for 100% increase of Cor. BF)” value was determined as 400 μg ia.
For `COC(=O)C1=C(C)NC(C)=C(C(=O)OC)C1c1cc([N+](=O)[O-])ccc1OCCCCCNCC(O)COc1ccccc1` (stereo not drawn) [Example 12, dimethyl 4-[2-[5-(2-hydroxy-3-phenoxypropylamino)pentyloxy]-5-nitrophenyl]-2,6-dimethyl-1,4-dihydropyridine-3,5-dicarboxylate], the ISA result on Beta-adrenoceptor [2] is “-”. Also, at Beta-adrenoceptor [3], the ED50 turned out to be 2.58 mg/kg. Moreover, the change in vivo at 0.3 mg/kg in assay [1] (setting [4]) came to 14%. The change in vivo at 0.3 mg/kg in assay [1] (setting [5]) is -18%. In addition, in the assay on coronary artery, the “Duration” value is above 60 min and the “ED100 pap (dose for 100% increase of Cor. BF)” value was determined as 475 μg ia.
`COC(=O)C1=C(C)NC(C)=C(C(=O)OC)C1c1cc([N+](=O)[O-])ccc1OCCCCNCC(O)COc1ccccc1` (stereo not drawn) [Example 15, dimethyl 4-[2-[4-(2-hydroxy-3-phenoxypropylamino)butoxy]-5-nitrophenyl]-2,6-dimethyl-1,4-dihydropyridine-3,5-dicarboxylate]: the ISA entry on Beta-adrenoceptor [2] is “-”. The ED50 on Beta-adrenoceptor [3] turned out to be 0.7 mg/kg. Also, the change in vivo at 1 mg/kg in assay [1] (setting [4]) is 96%; in assay [1] (setting [5]), -33%. In the assay on coronary artery, the “Duration” value is above 60 min. The “ED100 pap (dose for 100% increase of Cor. BF)” value in the assay on coronary artery stood at 228 μg ia.

Source of the values: patent US4727082A, “Dihydropyridine compounds and pharmaceutical compositions containing them” (Yamanouchi Pharmaceutical Co., Ltd., priority 1984, dated 1988).
